From patent publication US8188064B2, “Vitamin D analogs for obesity prevention and treatment” (Wisconsin Alumni Research Foundation, priority 2003, dated 2012)
“Also recorded” adds a separate entry of the source.

Key:
[1] = Intestinal calcium transport (everted gut sac); assay type: in vivo; details: result in words, vitamin D deficient rat model, compared to 1α,25(OH)2D3
Method: (§1) Male, weanling Sprague-Dawley rats were placed on Diet 11 (0.47% Ca) diet+AEK for one week followed by Diet 11 (0.02% Ca)+AEK for 3 weeks. The rats were then switched to a diet containing 0.47% Ca for one week followed by two weeks on a diet containing 0.02% Ca. Dose administration began during the last week on 0.02% calcium diet. Four consecutive ip doses were given approximately 24 hours apart. Twenty-four hours after the last dose, blood was collected from the severed neck and the concentration of serum calcium determined as a measure of bone calcium mobilization. The first 10 cm of the intestine was also collected for intestinal calcium transport analysis using the everted gut sac method.

PPARγ2 mRNA = PPARγ2 mRNA induction by MDI in 3T3-L1 cells (RT-PCR); assay type: cell-based, murine; details: compound present at 1×10^−10 M
Method: RT-PCR was carried out as described above with 0.5 μM each primer, 2 mM MgCl2, and 1×SYBR Green master mix.

[2] = Bone calcium mobilization (serum calcium on low calcium diet); assay type: in vivo, rat; details: for bone calcium mobilization activity: result in words, vitamin D deficient rat model, compared to 1α,25(OH)2D3
Method: as §1

3T3-L1 cells = assay: Inhibition of 3T3-L1 differentiation into mature adipocytes (Oil-Red-O staining); assay type: cell-based, murine; details: for inhibition of differentiation of 3T3-L1 cells into mature adipocytes (Oil-Red-O staining): result in words, MDI-treated cells, staining at day 10
Method: Various 19-nor vitamin D analogs were or are tested and found to inhibit the differentiation of preadipocytes into mature adipocytes, to reduce body fat, to inhibit an increase in PPARγ, C/EBPα, and/or SCD-1 gene transcription and to be useful in treating and preventing obesity both in vivo and in vitro. The undifferentiated preadipocyte 3T3-L1 subline, a derivative of the original mouse fibroblast cell line, is one of the most accepted models for investigating the adipogenesis process and was used for the analysis. Two days after reaching confluence, 3T3-L1 cells can be induced to differentiate into adipocytes (see Mackall, J. C. et al. J. Biol. Chem., 251(20), 6462-6464 (1976)) with the addition of a cAMP phosphodiesterase inhibitor, dexamethasone (a glucocortoid), and insulin. […] The induction of PPARγ and C/EBPα is required for adipocyte differentiation. […] SCD-1 is an enzyme found in adipocytes that converts saturated fatty acids (C16 and C18) to their monounsaturated forms (C16:1 and C18:1). The deposition of triglyceride can also be detected as early as 3 days, and by the 7th to 14th days post-confluence, greater than 80% of the cells in the monolayer stain positively with Oil-red-O.

SCD-1 mRNA = assay: Inhibition of SCD-1 mRNA induction in 3T3-L1 cells (RT-PCR); assay type: cell-based, murine; details: for inhibition of SCD-1 mRNA induction: result in words, MDI-treated 3T3-L1 cells
From the text: Chomczynski, P. et al., Anal. […] NO: 4)).

[3] = target: T1, full-length recombinant rat vitamin D receptor (Rattus norvegicus, UniProt P13053); assay: Vitamin D receptor binding (competition with 3H-1,25(OH)2D3); details: for binding to the vitamin D receptor, compared to 1α,25(OH)2D3: result in words, competition for tritiated hormone binding
T1 construct: Full-length recombinant rat receptor was expressed in E. coli; histidine tag (C); made in house; host or cells: E. coli BL21(DE3) Codon Plus RIL
T1 sequence (P13053 1-423): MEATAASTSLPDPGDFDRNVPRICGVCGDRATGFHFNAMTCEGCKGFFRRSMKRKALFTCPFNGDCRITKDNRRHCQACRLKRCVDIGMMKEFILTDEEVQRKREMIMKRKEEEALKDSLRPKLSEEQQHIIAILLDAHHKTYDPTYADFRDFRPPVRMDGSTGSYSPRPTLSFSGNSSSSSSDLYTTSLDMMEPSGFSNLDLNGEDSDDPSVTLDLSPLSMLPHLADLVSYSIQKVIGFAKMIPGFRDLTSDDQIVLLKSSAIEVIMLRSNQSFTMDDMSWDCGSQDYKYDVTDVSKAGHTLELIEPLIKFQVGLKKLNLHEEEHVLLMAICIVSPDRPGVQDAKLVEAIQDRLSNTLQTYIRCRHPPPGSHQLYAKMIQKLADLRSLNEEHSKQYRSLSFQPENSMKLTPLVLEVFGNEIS
Method: Full-length recombinant rat receptor was expressed in E. coli BL21(DE3) Codon Plus RIL cells and purified to homogeneity using two different column chromatography systems. The first system was a nickel affinity resin that utilizes the C-terminal histidine tag on this protein. The protein that was eluted from this resin was further purified using ion exchange chromatography (S-Sepharose Fast Flow). Aliquots of the purified protein were quick frozen in liquid nitrogen and stored at −80° C. until use. For use in binding assays, the protein was diluted in TEDK50 (50 mM Tris, 1.5 mM EDTA, pH 7.4, 5 mM DTT, 150 mM KCl) with 0.1% Chaps detergent. The receptor protein and ligand concentration was optimized such that no more than 20% of the added radiolabeled ligand was bound to the receptor.
Unlabeled ligands were dissolved in ethanol and the concentrations determined using UV spectrophotometry (1,25(OH)2D3: molar extinction coefficient=18,200 and λmax=265 nm; Analogs: molar extinction coefficient=42,000 and λmax=252 nm). Radiolabeled ligand (^3H-1,25(OH)2D3, ˜159 Ci/mmole) was added in ethanol at a final concentration of 1 nM.
Radiolabeled and unlabeled ligands were added to 100 mcl of the diluted protein at a final ethanol concentration of ≦10%, mixed and incubated overnight on ice to reach binding equilibrium. The following day, 100 mcl of hydroxylapatite slurry (50%) was added to each tube and mixed at 10-minute intervals for 30 minutes. The hydroxylapaptite was collected by centrifugation and then washed three times with Tris-EDTA buffer (50 mM Tris, 1.5 mM EDTA, pH 7.4) containing 0.5% Titron X-100. After the final wash, the pellets were transferred to scintillation vials containing 4 ml of Biosafe II scintillation cocktail, mixed and placed in a scintillation counter. Total binding was determined from the tubes containing only radiolabeled ligand.

C/EBPα mRNA = C/EBPα mRNA induction by MDI in 3T3-L1 cells (RT-PCR); assay type: cell-based, murine; details: compound present at 1×10^−10 M
Method: Analysis of C/EBPα was determined by PCR using murine primers (upstream=CGA GTA GGG GGA GCA AAA A (SEQ ID NO: 7); downstream=GCA AAA AGC MG GGA TTA GGA G (SEQ ID NO: 8)). RT-PCR was carried out as described above with 0.5 μM each primer, 2 mM MgCl2, and 1×SYBR Green master mix. The murine C/EBPα primers have a 60° C. annealing temperature and a 12 second extension time.

[4] = test system: 24-hydroxylase (24Ohase) gene promoter in ROS 17/2.8 (bone) cells; assay: In vitro transcription assay (luciferase reporter); assay type: cell-based; details: for transcriptional activity in bone cells, compared to 1α,25(OH)2D3: result in words
Method: Transcription activity was measured in ROS 17/2.8 (bone) cells that were stably transfected with a 24-hydroxylase (24Ohase) gene promoter upstream of a luciferase reporter gene (Arbour et al., 1998). Cells were given a range of doses. Sixteen hours after dosing the cells were harvested and luciferase activities were measured using a luminometer. RLU=relative luciferase units.

[5] = Hypercalcemia / serum calcium analysis; assay type: in vivo, rat
[6] = test system: Human promyelocytic leukemia (HL60) cells; assay: HL-60 differentiation (nitro blue tetrazolium reduction); assay type: cell-based
Method: The study drugs were dissolved in ethanol and the concentrations determined using UV spectrophotometry. Serial dilutions were prepared so that a range of drug concentrations could be tested without changing the final concentration of ethanol (≦0.2%) present in the cell cultures.
Human promyelocytic leukemia (HL60) cells were grown in RPMI-1640 medium containing 10% fetal bovine serum. The cells were incubated at 37° C. in the presence of 5% CO2.
HL60 cells were plated at 1.2×10^5 cells/ml. Eighteen hours after plating, cells in duplicate were treated with drug. Four days later, the cells were harvested and a nitro blue tetrazolium reduction assay was performed (Collins et al., 1979; J. Exp. Med. 149:969-974). The percentage of differentiated cells was determined by counting a total of 200 cells and recording the number that contained intracellular black-blue formazan deposits. Verification of differentiation to monocytic cells was determined by measuring phagocytic activity (data not shown).

[7] = test system: parathyroid hormone (PTH); assay: PTH suppression (serum PTH); assay type: in vivo, rat; details: result in words; normal/adult rats
Method: Adult, female Sprague-Dawley rats were obtained from Harlan (Madison, Wis.).
Upon receipt, the animals were identified by individual tail marks. Animals were housed in suspended, stainless steel, wire-bottom cages. Each cage contained one animal. The animal rooms were maintained at a temperature of 68 to 72° F. and a relative humidity of 25 to 75%. The holding rooms were set to provide 12 hours of light per day. Water and a purified rodent diet (Suda et al., Purified Rodent Diet-Diet 11) containing […] 0.3% phosphorus and fat soluble vitamins A, D, E and K were provided ad libitum.
Animals were randomly assigned to treatment groups (5 animals/group). All doses were administered intraperitoneally in 100 microliters of propylene glycol. Four to seven consecutive doses were given approximately 24 hours apart. Dosing was initiated after the animals had been allowed to acclimate for at least one week.
Both control and test articles were administered by intraperitoneal injection in 100 microliters for 4-7 consecutive days spaced approximately 24 hours apart. 1,25(OH)2D3 was given for 4 consecutive days, whereas, the test drugs were given for 7 consecutive days.
Twenty-four hours after the final dose, blood was collected from the tail artery and the concentration of bioactive serum PTH was measured using the rat BioActive Intact PTH ELISA Kit from Immutopics, Inc. (San Clemente, Calif.).

Structure (SMILES) | intestinal calcium transport activity [1] | bone calcium mobilization activity [2] | inhibition of differentiation of 3T3-L1 cells into mature adipocytes (Oil-Red-O staining) (3T3-L1 cells) | binding to the vitamin D receptor, compared to 1α,25(OH)2D3 [3] | differentiation of HL-60 cells, times less active than 1α,25(OH)2D3 [6] | suppression of parathyroid hormone (PTH) [7] | transcriptional activity in bone cells, compared to 1α,25(OH)2D3 [4] | further results
C=C1[C@H](O)CC(=C/C=C2\CCC[C@]3(C)[C@@H]([C@@H](C)CCCC(C)(C)O)CC[C@@H]23)C[C@H]1O [2-MD] | active | active | highest activity; also recorded: so much greater; also recorded: inhibit | as well as the native hormone |  |  |  | PPARγ mRNA induction by MDI (PPARγ2 mRNA): prevented these mRNAs from being upregulated; also recorded: not induced; EC50 (SCD-1 mRNA; Mus musculus, 3T3-L1, 96 h, SCD-1 mRNA at 4 days, read-out: EC50 for inhibition of murine 3T3-L1 expression of SCD-1 mRNA): ~2.9 pM; times more potent than the native hormone calcitriol (SCD-1 mRNA; inhibition of 3T3-L1 differentiation (FIG. 2 and FIG. 3)): at least 70 times; C/EBPα mRNA induction by MDI (C/EBPα mRNA): prevented these mRNAs from being upregulated; also recorded: not induced
C=C1[C@H](O)CC(=C/C=C2\CCC[C@]3(C)[C@@H]([C@H](C)CC)CC[C@@H]23)C[C@H]1O [(20R)2MbisP] | does not support | does not support | nearly equipotent | approximately equally effective | about 5 times | considerable activity |  | transcription of reporter gene coupled to the CYP-24 promoter, times less active than 1α,25-(OH)2D3 ([4]; less active than 1α,25-(OH)2D3): about 5 times; intestinal calcium transport activity ([1]; listed as (20R)2-MbisP): less activity; hypercalcemia in adult rats ([5]; doses as high as 45 nmol/day): failed to cause hypercalcemia; bone calcium mobilization activity ([2]; listed as (20R)2-MbisP): very little bone calcium mobilization activity; inhibition of differentiation of MDI-treated 3T3-L1 cells (oil-red-O staining) (3T3-L1 cells; tested at 1×10^−8.5 M): active; inhibition of SCD1 mRNA induction (SCD-1 mRNA; tested at 1×10^−8.5 M): active
C=C1[C@H](O)CC(=C/C=C2\CCC[C@]3(C)[C@@H](CCC)CC[C@@H]23)C[C@H]1O [19,21-dinor, 2-methylene-19,21-dinor-1α-hydroxybishomopregnacalciferol] | no calcemic activity | no calcemic activity |  |  | about 15 times | significant activity | active | vitamin D receptor binding, times less active than 1α,25-dihydroxyvitamin D3 ([3]; less active than 1α,25-dihydroxyvitamin D3): about 5 times
C=C1[C@H](O)CC(=C/C=C2\CCC[C@]3(C)[C@@H]([C@@H](C)CCC)CC[C@@H]23)C[C@H]1O [2MtrisP] | some ability to elevate intestinal calcium transport; also recorded: less activity | very little bone calcium mobilization activity | increased slightly | almost equal to the native hormone; also recorded: as or nearly effective as calcitriol |  | remarkably effective | within one order of magnitude | serum calcium concentrations ([5]; adult rats, PTH suppression study): not raising serum calcium concentrations; bone calcium mobilizing activity ([2]; very high dose of 2340 pmol/day): little bone calcium mobilizing activity; inhibition of differentiation of 3T3-L1 cells into mature adipocytes (Oil-Red-O staining) (3T3-L1 cells; listed as (20S)2M-trisP): still possess activity; inhibition of SCD-1 mRNA induction (SCD-1 mRNA): increased slightly; inhibition of SCD-1 mRNA induction (SCD-1 mRNA; listed as (20S)2M-trisP): still possess activity; differentiation of HL-60 cells, compared to 1α,25(OH)2D3 ([6]; result in words): equal in activity
